Converted amounts (≈) assume the structure as drawn.
Experiments:
Streptococcus pyogenes = test: Antibacterial activity against Streptococcus pyogenes after 24 hrs by disc diffusion method; format: functional; settings: for MIC: Streptococcus pyogenes, 24 h
Pseudomonas aeruginosa = test: microbe, parasite or virus in culture; format: functional, ATCC 27853; settings: for MIC: Pseudomonas aeruginosa, ATCC 27853, 24 h
Description: Antibacterial activity against Pseudomonas aeruginosa ATCC 27853 after 24 hrs by disc diffusion method

Candida albicans = test: Antifungal activity against Candida albicans NCIM no. 300 after 3 to 4 days by serial plate dilution method; format: functional; settings: for MIC: Candida albicans
Trichophyton benhamiae = test: Antifungal activity against Trichophyton mentagrophytes after 3 to 4 days by serial plate dilution method; format: functional, Arthroderma benhamiae; settings: for MIC: Trichophyton benhamiae
Talaromyces marneffei = test: Antifungal activity against Penicillium marneffei after 3 to 4 days by serial plate dilution method; format: functional; settings: for MIC: Talaromyces marneffei
Staphylococcus aureus = test: microbe, parasite or virus in culture; format: functional, ATCC 25923; settings: for MIC: Staphylococcus aureus, ATCC 25923, 24 h
Description: Antibacterial activity against Staphylococcus aureus ATCC 25923 after 24 hrs by disc diffusion method

Klebsiella pneumoniae = test: Antibacterial activity against Klebsiella pneumoniae after 24 hrs by disc diffusion method; format: functional; settings: for MIC: Klebsiella pneumoniae, 24 h
Aspergillus fumigatus = test: Antifungal activity against Aspergillus fumigatus NCIM no. 902 after 3 to 4 days by serial plate dilution method; format: functional; settings: for MIC: Aspergillus fumigatus
Aspergillus flavus = test: Antifungal activity against Aspergillus flavus NCIM no. 524 after 3 to 4 days by serial plate dilution method; format: functional; settings: for MIC: Aspergillus flavus
Escherichia coli = test: microbe, parasite or virus in culture; format: functional, ATCC 25922; settings: for MIC: Escherichia coli, ATCC 25922, 24 h
Description: Antibacterial activity against Escherichia coli ATCC 25922 after 24 hrs by disc diffusion method

| SMILES | inhibition zone (IZ) (Streptococcus pyogenes) [mm] | MIC (Streptococcus pyogenes) [µg/mL] | inhibition zone (IZ) (Pseudomonas aeruginosa) [mm] | MIC (Pseudomonas aeruginosa) [µg/mL] | inhibition zone (IZ) (Candida albicans) [mm] | MIC (Candida albicans) [µg/mL] | inhibition zone (IZ) (Trichophyton benhamiae) [mm] | MIC (Trichophyton benhamiae) [µg/mL] | inhibition zone (IZ) (Talaromyces marneffei) [mm] | MIC (Talaromyces marneffei) [µg/mL] | inhibition zone (IZ) (Staphylococcus aureus) [mm] | MIC (Staphylococcus aureus) [µg/mL] | inhibition zone (IZ) (Klebsiella pneumoniae) [mm] | MIC (Klebsiella pneumoniae) [µg/mL] | inhibition zone (IZ) (Aspergillus fumigatus) [mm] | MIC (Aspergillus fumigatus) [µg/mL] | inhibition zone (IZ) (Aspergillus flavus) [mm] | MIC (Aspergillus flavus) [µg/mL] | inhibition zone (IZ) (Escherichia coli) [mm] | MIC (Escherichia coli) [µg/mL] |
| --- | --- | --- | --- | --- | --- | --- | --- | --- | --- | --- | --- | --- | --- | --- | --- | --- | --- | --- | --- | --- |
| COc1ccc(C2=NN(C(=O)COc3ccc(Cl)cc3Cl)C(O)(c3cc(F)c(Cl)cc3Cl)C2)cc1 (centres undefined) | 19 | 12.5 (≈ 22.4 µM) | 21 | 6.25 (≈ 11.2 µM) | 12.5 | 17 (≈ 30.5 µM) | 18 | 6.25 (≈ 11.2 µM) | 20 | 6.25 (≈ 11.2 µM) | 16 | 6.25 (≈ 11.2 µM) | 16 | 12.5 (≈ 22.4 µM) | 19 | 6.25 (≈ 11.2 µM) | 16 | 12.5 (≈ 22.4 µM) | 16 | 12.5 (≈ 22.4 µM) |
| Cc1ccc(OCC(=O)N2N=C(c3ccc(Cl)cc3Cl)CC2(O)c2cc(F)c(Cl)cc2Cl)cc1 (centres undefined) | 18 | 12.5 (≈ 23.1 µM) | 24 | 6.25 (≈ 11.5 µM) | 19 | 6.25 (≈ 11.5 µM) | 18 | 6.25 (≈ 11.5 µM) | 18 | 6.25 (≈ 11.5 µM) | 19 | 6.25 (≈ 11.5 µM) | 18 | 6.25 (≈ 11.5 µM) | 20 | 6.25 (≈ 11.5 µM) | 16 | 12.5 (≈ 23.1 µM) | 15 | 12.5 (≈ 23.1 µM) |
| O=C(O)c1cn(C2CC2)c2cc(N3CCNCC3)c(F)cc2c1=O [CIPROFLOXACIN] | 20 | 12.5 (≈ 37.7 µM) | 25 |  |  |  |  |  |  |  | 19 |  | 20 | 6.25 (≈ 18.9 µM) |  |  |  |  | 18 | 12.5 (≈ 37.7 µM) |
| O=C(COc1ccc(Cl)cc1)N1N=C(c2ccc(Cl)cc2Cl)CC1(O)c1cc(F)c(Cl)cc1Cl (centres undefined) |  | > 100 |  | > 100 |  | > 100 |  |  | 10 | 25 (≈ 44.4 µM) |  | > 100 |  | > 100 |  | > 100 |  | > 100 |  | > 100 |
| COc1ccc(C2=NN(C(=O)COc3ccc(C)cc3)C(O)(c3cc(F)c(Cl)cc3Cl)C2)cc1 (centres undefined) |  | > 100 | 10 | 25 (≈ 49.7 µM) |  | > 100 | 10 | 25 (≈ 49.7 µM) | 12 | 12.5 (≈ 24.8 µM) |  | > 100 |  | > 100 | 12 | 12.5 (≈ 24.8 µM) |  | > 100 |  | > 100 |
| O=C(COc1ccc(Cl)cc1)N1N=C(c2ccc(Cl)cc2)CC1(O)c1cc(F)c(Cl)cc1Cl (centres undefined) | 20 | 12.5 (≈ 23.7 µM) | 21 | 6.25 (≈ 11.8 µM) | 20 | 12.5 (≈ 23.7 µM) | 19 | 6.25 (≈ 11.8 µM) | 18 | 6.25 (≈ 11.8 µM) | 18 | 6.25 (≈ 11.8 µM) | 19 | 6.25 (≈ 11.8 µM) | 18 | 6.25 (≈ 11.8 µM) | 16 | 12.5 (≈ 23.7 µM) | 18 | 12.5 (≈ 23.7 µM) |
| O=C(COc1ccc(Cl)cc1)N1N=C(c2ccccc2)CC1(O)c1cc(F)c(Cl)cc1Cl (centres undefined) |  | > 100 |  | > 100 |  | > 100 | 7 | 25 (≈ 50.6 µM) | 10 | 25 (≈ 50.6 µM) | 14 | 12.5 (≈ 25.3 µM) | 10 | 25 (≈ 50.6 µM) | 14 | 12.5 (≈ 25.3 µM) | 9 | 25 (≈ 50.6 µM) |  | > 100 |
| OC(Cn1cncn1)(Cn1cncn1)c1ccc(F)cc1F [FLUCONAZOLE] |  |  |  |  | 20 | 6.25 (≈ 20.4 µM) | 20 | 6.25 (≈ 20.4 µM) | 21 | 6.25 (≈ 20.4 µM) |  |  |  |  | 22 | 6.25 (≈ 20.4 µM) | 18 | 12.5 (≈ 40.8 µM) |  |  |
| COc1ccc(C2=NN(C(=O)COc3ccc(Cl)cc3Cl)C(O)(c3cc(F)c(Cl)cc3Cl)C2)cc1OC (centres undefined) |  | > 100 |  | > 100 |  | > 100 |  | > 100 | 12 | 25 (≈ 42.5 µM) |  | > 100 |  | > 100 | 14 | 12.5 (≈ 21.2 µM) |  | > 100 | 9 | 25 (≈ 42.5 µM) |
| O=C(COc1ccc(Cl)cc1Cl)N1N=C(c2ccccc2)CC1(O)c1cc(F)c(Cl)cc1Cl (centres undefined) | 15 | 12.5 (≈ 23.7 µM) | 19 | 6.25 (≈ 11.8 µM) | 10 | 25 (≈ 47.3 µM) | 11 | 25 (≈ 47.3 µM) | 15 | 6.25 (≈ 11.8 µM) | 15 | 6.25 (≈ 11.8 µM) | 16 | 6.25 (≈ 11.8 µM) | 13 | 12.5 (≈ 23.7 µM) | 15 | 12.5 (≈ 23.7 µM) | 17 | 12.5 (≈ 23.7 µM) |
| COc1ccc(C2=NN(C(=O)COc3ccc(C)cc3)C(O)(c3cc(F)c(Cl)cc3Cl)C2)cc1OC (centres undefined) |  | > 100 | 23 | 6.25 (≈ 11.7 µM) |  | > 100 | 23 | 6.25 (≈ 11.7 µM) |  | > 100 |  | > 100 |  | > 100 |  | > 100 | 10 | 25 (≈ 46.9 µM) | 16 | 12.5 (≈ 23.4 µM) |
| O=C(COc1ccc(Cl)cc1Cl)N1N=C(c2ccc(Cl)cc2)CC1(O)c1cc(F)c(Cl)cc1Cl (centres undefined) |  | > 100 | 23 | 6.25 (≈ 11.1 µM) |  | > 100 | 12 | 12.5 (≈ 22.2 µM) |  | > 100 |  | > 100 |  | 6.25 (≈ 11.1 µM) |  | > 100 | 10 | 25 (≈ 44.4 µM) | 10 | 25 (≈ 44.4 µM) |
| COc1ccc(C2=NN(C(=O)COc3ccc(Cl)cc3)C(O)(c3cc(F)c(Cl)cc3Cl)C2)cc1 (centres undefined) | 18 | 12.5 (≈ 23.9 µM) | 22 | 6.25 (≈ 11.9 µM) | 19 | 6.25 (≈ 11.9 µM) | 19 | 6.25 (≈ 11.9 µM) | 20 | 6.25 (≈ 11.9 µM) | 19 | 6.25 (≈ 11.9 µM) | 19 | 6.25 (≈ 11.9 µM) | 21 | 6.25 (≈ 11.9 µM) | 18 | 12.5 (≈ 23.9 µM) | 18 | 12.5 (≈ 23.9 µM) |

Reference: ChEMBL document CHEMBL1144479, “Synthesis and antimicrobial studies on novel chloro-fluorine containing hydroxy pyrazolines” (2007)
